From patent publication US20250223268A1, “4-Methylsulfonylbenzamide Compound, Preparation Method, Herbicidal Composition And Use” (Jiangsu Flag Chemical Industry Co., Ltd., priority 2022, published 2025)

Columns and labels:
Assay in all cases: Greenhouse herbicidal activity assay, post-emergence
Assay type in all cases: in vivo
Details in all cases: Post-emergence test, rate 150 g a.i./hm^2, grade by fresh weight inhibition rate
[1] = system: Echinochloa crusgalli
Outline: (§1)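 Letter grades (A: ≥80% to 100%; C: ≥40% to <60%; E: <20%) express fresh weight inhibition recorded 14-21 days post-spray. Weeds were treated on the leaves once they reached 3-6 leaves in chamber-grown pots, allowed to dry naturally, then kept in the chamber.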

[2] = system: Cyperus iria
Outline: as §1

[3] = system: Leptochloa chinensis
Outline: as §1

[4] = system: Eclipta prostrata
Outline: as §1

[5] = system: Digitaria sanguinalis
Outline: as §1

| SMILES | Control efficacy grade, Echinochloa crusgalli [1] | Control efficacy grade, Cyperus iria [2] | Control efficacy grade, Leptochloa chinensis [3] | Control efficacy grade, Eclipta prostrata [4] | Control efficacy grade, Digitaria sanguinalis [5] | pest or weed control at 150 g/ha ([1]; Echinochloa crus-galli, read-out: Control efficacy grade, Echinochloa crusgalli) | pest or weed control at 150 g/ha ([2]; Cyperus iria, read-out: Control efficacy grade, Cyperus iria) | pest or weed control at 150 g/ha ([3]; Dinebra chinensis, read-out: Control efficacy grade, Leptochloa chinensis) | pest or weed control at 150 g/ha ([4]; Eclipta prostrata, read-out: Control efficacy grade, Eclipta prostrata) | pest or weed control at 150 g/ha ([5]; Digitaria sanguinalis, read-out: Control efficacy grade, Digitaria sanguinalis) |
| --- | --- | --- | --- | --- | --- | --- | --- | --- | --- | --- |
| Cn1nnnc1NC(=O)c1ccc(S(C)(=O)=O)c([S+]([O-])CC#N)c1Cl (racemic) [Compound 1-63] | A (Fresh weight inhibition rate≥80% to 100%) | A (Fresh weight inhibition rate≥80% to 100%) | A (Fresh weight inhibition rate≥80% to 100%) | A (Fresh weight inhibition rate≥80% to 100%) | B (Fresh weight inhibition rate≥260% to <80%) | – | – | – | – | – |
| C=CC[S+]([O-])c1c(S(C)(=O)=O)ccc(C(=O)Nc2nnnn2C)c1Cl (racemic) [Compound 1-68] | A (Fresh weight inhibition rate≥80% to 100%) | A (Fresh weight inhibition rate≥80% to 100%) | A (Fresh weight inhibition rate≥80% to 100%) | A (Fresh weight inhibition rate≥80% to 100%) | A (Fresh weight inhibition rate≥80% to 100%) | – | – | – | – | – |
| CCC[S+]([O-])c1c(S(C)(=O)=O)ccc(C(=O)Nc2nnn[nH]2)c1Cl (racemic) [Compound 1-78] | A (Fresh weight inhibition rate≥80% to 100%) | A (Fresh weight inhibition rate≥80% to 100%) | A (Fresh weight inhibition rate≥80% to 100%) | A (Fresh weight inhibition rate≥80% to 100%) | A (Fresh weight inhibition rate≥80% to 100%) | – | – | – | – | – |
| CC(C)[S+]([O-])c1c(S(C)(=O)=O)ccc(C(=O)Nc2nnn[nH]2)c1Cl (racemic) [Compound 1-83] | A (Fresh weight inhibition rate≥80% to 100%) | A (Fresh weight inhibition rate≥80% to 100%) | A (Fresh weight inhibition rate≥80% to 100%) | A (Fresh weight inhibition rate≥80% to 100%) | A (Fresh weight inhibition rate≥80% to 100%) | – | – | – | – | – |
| CCC[S+]([O-])c1c(S(C)(=O)=O)ccc(C(=O)Nc2nnnn2CC)c1Cl (racemic) [Compound 1-88] | A (Fresh weight inhibition rate≥80% to 100%) | A (Fresh weight inhibition rate≥80% to 100%) | A (Fresh weight inhibition rate≥80% to 100%) | A (Fresh weight inhibition rate≥80% to 100%) | A (Fresh weight inhibition rate≥80% to 100%) | – | – | – | – | – |
| CCC[S+]([O-])c1c(S(C)(=O)=O)ccc(C(=O)Nc2ncnn2C)c1Cl (racemic) [Compound 2-2] | A (Fresh weight inhibition rate≥80% to 100%) | A (Fresh weight inhibition rate≥80% to 100%) | A (Fresh weight inhibition rate≥80% to 100%) | A (Fresh weight inhibition rate≥80% to 100%) | A (Fresh weight inhibition rate≥80% to 100%) | – | – | – | – | – |
| CC(C)[S+]([O-])c1c(S(C)(=O)=O)ccc(C(=O)Nc2ncnn2C)c1Cl (racemic) [Compound 2-7, 2-chloro-3-(isopropylsulfinyl)-N-(1-methyl-1H-1,2,4-triazol-5-yl)-4-(methylsulfonyl)benzamide] | – | – | – | – | – | 80 to 100% | 80 to 100% | 80 to 100% | 80 to 100% | 80 to 100% |
| CCCC[S+]([O-])c1c(S(C)(=O)=O)ccc(C(=O)Nc2ncnn2C)c1Cl (racemic) [Compound 2-12] | A (Fresh weight inhibition rate≥80% to 100%) | A (Fresh weight inhibition rate≥80% to 100%) | A (Fresh weight inhibition rate≥80% to 100%) | A (Fresh weight inhibition rate≥80% to 100%) | A (Fresh weight inhibition rate≥80% to 100%) | – | – | – | – | – |
| CCC(C)S(=O)(=O)c1c(S(C)(=O)=O)ccc(C(=O)Nc2ncnn2C)c1Cl (racemic) [Compound 2-24] | A (Fresh weight inhibition rate≥80% to 100%) | A (Fresh weight inhibition rate≥80% to 100%) | A (Fresh weight inhibition rate≥80% to 100%) | A (Fresh weight inhibition rate≥80% to 100%) | A (Fresh weight inhibition rate≥80% to 100%) | – | – | – | – | – |
| Cn1ncnc1NC(=O)c1ccc(S(C)(=O)=O)c([S+]([O-])CC2CC2)c1Cl (racemic) [Compound 2-28] | A (Fresh weight inhibition rate≥80% to 100%) | A (Fresh weight inhibition rate≥80% to 100%) | A (Fresh weight inhibition rate≥80% to 100%) | A (Fresh weight inhibition rate≥80% to 100%) | A (Fresh weight inhibition rate≥80% to 100%) | – | – | – | – | – |
| Cn1ncnc1NC(=O)c1ccc(S(C)(=O)=O)c([S+]([O-])C2CC2)c1Cl (racemic) [Compound 2-33] | A (Fresh weight inhibition rate≥80% to 100%) | A (Fresh weight inhibition rate≥80% to 100%) | A (Fresh weight inhibition rate≥80% to 100%) | A (Fresh weight inhibition rate≥80% to 100%) | A (Fresh weight inhibition rate≥80% to 100%) | – | – | – | – | – |
| Cn1ncnc1NC(=O)c1ccc(S(C)(=O)=O)c([S+]([O-])C2CCC2)c1Cl (racemic) [Compound 2-38] | A (Fresh weight inhibition rate≥80% to 100%) | A (Fresh weight inhibition rate≥80% to 100%) | A (Fresh weight inhibition rate≥80% to 100%) | A (Fresh weight inhibition rate≥80% to 100%) | A (Fresh weight inhibition rate≥80% to 100%) | – | – | – | – | – |
| Cn1ncnc1NC(=O)c1ccc(S(C)(=O)=O)c([S+]([O-])C2CCCC2)c1Cl (racemic) [Compound 2-43] | A (Fresh weight inhibition rate≥80% to 100%) | A (Fresh weight inhibition rate≥80% to 100%) | A (Fresh weight inhibition rate≥80% to 100%) | A (Fresh weight inhibition rate≥80% to 100%) | A (Fresh weight inhibition rate≥80% to 100%) | – | – | – | – | – |
| Cn1ncnc1NC(=O)c1ccc(S(C)(=O)=O)c([S+]([O-])C2CCCCC2)c1Cl (racemic) [Compound 2-48] | A (Fresh weight inhibition rate≥80% to 100%) | A (Fresh weight inhibition rate≥80% to 100%) | A (Fresh weight inhibition rate≥80% to 100%) | A (Fresh weight inhibition rate≥80% to 100%) | A (Fresh weight inhibition rate≥80% to 100%) | – | – | – | – | – |
| C=CC[S+]([O-])c1c(S(C)(=O)=O)ccc(C(=O)Nc2ncnn2C)c1Cl (racemic) [Compound 2-68] | A (Fresh weight inhibition rate≥80% to 100%) | A (Fresh weight inhibition rate≥80% to 100%) | A (Fresh weight inhibition rate≥80% to 100%) | A (Fresh weight inhibition rate≥80% to 100%) | A (Fresh weight inhibition rate≥80% to 100%) | – | – | – | – | – |
| CCC[S+]([O-])c1c(S(C)(=O)=O)ccc(C(=O)Nc2nnc(C)o2)c1Cl (racemic) [Compound 3-2] | A (Fresh weight inhibition rate≥80% to 100%) | A (Fresh weight inhibition rate≥80% to 100%) | A (Fresh weight inhibition rate≥80% to 100%) | A (Fresh weight inhibition rate≥80% to 100%) | A (Fresh weight inhibition rate≥80% to 100%) | – | – | – | – | – |
